Consider nine compounds from ChEMBL document CHEMBL1201862, “PubChem BioAssay data set” (2004).

Test systems include BT-549; K562; A498; 786-0; COLO 205; UO-31; HOP-62; LOX IMVI; OVCAR-4; SNB-19; SK-MEL-28; CCRF-CEM; A549; SF-268; U-251; KM12; IGROV-1; MOLT-4; HCT-116; OVCAR-3.
Test in all cases: inhibition of tumour cell growth, NCI panel, 48 h

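Cells were grown in 96-well plates and exposed to each compound for 48 hours at five concentrations; endpoints were interpolated linearly between bracketing concentrations, or set to the highest concentration if not reached. GI50 marks 50% less growth.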 Calls of active or inactive are those of the source. No stated cut-off is given here; in the data, active = GI50 up to about 1.1 µM and inactive = higher.

Regarding `CNC1=C/C(=N/C2=CC(=N/C(=C\C#N)C(C)(C)O)/OC2(C)C)OC1(C)C`, the GI50 in the experiment with BT-549 was 29.6 µM (inactive); with K562, 3.12 µM (inactive); in the experiment on A498, 30.9 µM (inactive); with 786-0 it was 11.8 µM (inactive); in the experiment on COLO 205 it was 6.56 µM (inactive); with UO-31 it was 5.77 µM (inactive). Further, the GI50 in the experiment on HOP-62 was 7.96 µM (inactive); with LOX IMVI, 5.51 µM (inactive); in the experiment on OVCAR-4, 27.2 µM (inactive); in the experiment with SNB-19, 33 µM (inactive); with SK-MEL-28 it was 33.2 µM (inactive); in the experiment on CCRF-CEM, 3.08 µM (inactive). Also, the GI50 was 15.5 µM (inactive) in the experiment on A549; 4.31 µM (inactive) with SF-268; 7.1 µM (inactive) with U-251; 13.5 µM (inactive) in the experiment on KM12; 6.52 µM (inactive) in the experiment on IGROV-1; 2.31 µM (inactive) in the experiment on MOLT-4. Also, the GI50 in the experiment on HCT-116 was 5.15 µM (inactive); in the experiment with OVCAR-3 it was 32.4 µM (inactive).
Consider `CCCCCCCCCCCCCCCC[N+](C)(C)CCl`, for which the GI50 in the experiment with BT-549 is 2.29 µM (inactive); with K562 it was 1.75 µM (inactive); in the experiment on A498, 8.67 µM (inactive); in the experiment on 786-0 it was 1.55 µM (inactive); with COLO 205, 1.65 µM (inactive); in the experiment on UO-31, 11.1 µM (inactive). Besides, the GI50 with HOP-62 is 2.29 µM (inactive); in the experiment with LOX IMVI, 1.51 µM (inactive); in the experiment with OVCAR-4, 2.86 µM (inactive); with SNB-19, 1.66 µM (inactive); in the experiment with SK-MEL-28, 5.19 µM (inactive); in the experiment with CCRF-CEM it was 1.15 µM (inactive). For the same compound, the GI50 in the experiment with A549 was 5 µM (inactive); in the experiment with SF-268, 2.74 µM (inactive); in the experiment with U-251, 1.68 µM (inactive); in the experiment on KM12 it was 1.46 µM (inactive); with IGROV-1, 0.585 µM (active); with MOLT-4, 1.84 µM (inactive). Further, the GI50 in the experiment with HCT-116 is 2.14 µM (inactive); in the experiment with OVCAR-3, 3.03 µM (inactive).
Take `O=C(O)COc1cccc2ccccc(=O)c12`: the GI50 in the experiment with BT-549, in the experiment with K562, in the experiment with A498, in the experiment with 786-0, in the experiment with COLO 205 and in the experiment on UO-31 was > 100 µM (inactive) in each case. Also, the GI50 in the experiment with HOP-62, in the experiment on LOX IMVI, in the experiment on OVCAR-4, in the experiment on SNB-19, with SK-MEL-28 and in the experiment with CCRF-CEM was > 100 µM (inactive) throughout. The GI50 in the experiment on A549, in the experiment on SF-268, with U-251, in the experiment on KM12, in the experiment on IGROV-1 and with MOLT-4 was > 100 µM (inactive) each time. Also, the GI50 with HCT-116 and in the experiment on OVCAR-3 was > 100 µM (inactive) throughout.
Consider `COc1cc2nc3n(c2cc1OC)C(O)c1c(Cl)nc(SC)nc1S3` (stereo not given), for which the GI50 in the experiment on BT-549 is 2.16 µM (inactive); with K562, 3.03 µM (inactive); in the experiment with A498, 6.81 µM (inactive); with 786-0, 2.35 µM (inactive); in the experiment on COLO 205, 4.78 µM (inactive); in the experiment on UO-31, 2.99 µM (inactive). Also, the GI50 in the experiment on HOP-62 was 3.72 µM (inactive); in the experiment on LOX IMVI, 1.7 µM (inactive); with OVCAR-4, 5.77 µM (inactive); with SNB-19, 6.47 µM (inactive); in the experiment on SK-MEL-28 it was 6.19 µM (inactive); in the experiment on CCRF-CEM, 1.17 µM (inactive). In addition, the GI50 with A549 was 5.08 µM (inactive); in the experiment on SF-268, 3.78 µM (inactive); in the experiment with U-251, 3.37 µM (inactive); with KM12, 2.68 µM (inactive); in the experiment on IGROV-1, 2.6 µM (inactive); in the experiment on MOLT-4 it was 1.98 µM (inactive). The GI50 was 2.46 µM (inactive) with HCT-116 and 3.12 µM (inactive) with OVCAR-3.
`COc1ccc(/C=C2\CCC(Cc3ccccc3)(CN(C)C)C2=O)cc1` (stereo not given): the GI50 with BT-549 was 68.5 µM (inactive); in the experiment on K562 it was 26.4 µM (inactive); in the experiment on A498, 58.6 µM (inactive); with 786-0 it was 41.7 µM (inactive); in the experiment on COLO 205, 37.8 µM (inactive); in the experiment on UO-31, 54.3 µM (inactive). Further, the GI50 is > 100 µM (inactive) in the experiment with HOP-62; 24.5 µM (inactive) in the experiment with LOX IMVI; 56.8 µM (inactive) in the experiment with OVCAR-4; 51.4 µM (inactive) in the experiment with SNB-19; > 72.9 µM (inactive) in the experiment on SK-MEL-28; 27.9 µM (inactive) in the experiment on CCRF-CEM. Besides, the GI50 is 50.5 µM (inactive) in the experiment with A549; 69.5 µM (inactive) with SF-268; 61.7 µM (inactive) with U-251; 41.1 µM (inactive) with KM12; > 100 µM (inactive) in the experiment with IGROV-1; 25 µM (inactive) with MOLT-4. The GI50 is 28.8 µM (inactive) in the experiment with HCT-116 and 43.7 µM (inactive) with OVCAR-3.
As for `CC1(C)C2CCC1(CC(=O)O)C(Cl)C2` (stereo not given), the GI50 in the experiment on BT-549, in the experiment with K562, in the experiment with A498, with 786-0, in the experiment on COLO 205 and in the experiment on UO-31 was > 100 µM (inactive) throughout. Besides, the GI50 in the experiment with HOP-62, with LOX IMVI, in the experiment on OVCAR-4, with SNB-19, with SK-MEL-28 and with CCRF-CEM was > 100 µM (inactive) throughout. The GI50 in the experiment on A549, in the experiment with SF-268, in the experiment with U-251, in the experiment on KM12, in the experiment on IGROV-1 and in the experiment with MOLT-4 was > 100 µM (inactive) throughout. In addition, the GI50 with HCT-116 and with OVCAR-3 was > 100 µM (inactive) in each case.
With `CCN(CC)CC[n+]1ccc2c(C)c3[nH]c4ccc(O)cc4c3c(C)c2c1`, the GI50 in the experiment with BT-549 is 12.7 µM (inactive); in the experiment on K562, 4.06 µM (inactive); in the experiment on A498, 16.2 µM (inactive); with 786-0, 3.05 µM (inactive); in the experiment on COLO 205, 3.18 µM (inactive); with UO-31, 28 µM (inactive). Besides, the GI50 was 2.03 µM (inactive) in the experiment on HOP-62; 10.8 µM (inactive) with LOX IMVI; 3.85 µM (inactive) in the experiment on OVCAR-4; 1.21 µM (inactive) in the experiment on SNB-19; 7.13 µM (inactive) in the experiment on SK-MEL-28; 1.43 µM (inactive) with CCRF-CEM. In addition, the GI50 in the experiment on A549 was 1.35 µM (inactive); with SF-268, 1.12 µM (active); with U-251, 1.33 µM (inactive); with KM12, 4.31 µM (inactive); in the experiment on IGROV-1 it was 6.44 µM (inactive); in the experiment on MOLT-4, 0.0473 µM (active). Moreover, the GI50 is 6.47 µM (inactive) in the experiment on HCT-116 and 14.9 µM (inactive) in the experiment on OVCAR-3.
Take `O=c1[nH]c2cc3cccnc3c(Cl)c2nc1C(F)(F)F`: the GI50 is 38.9 µM (inactive) in the experiment on BT-549; 29.7 µM (inactive) in the experiment on K562; 19.2 µM (inactive) in the experiment on A498; 72.4 µM (inactive) in the experiment with 786-0; 36.4 µM (inactive) in the experiment with COLO 205; 27.7 µM (inactive) with UO-31. In addition, the GI50 is 29.3 µM (inactive) in the experiment on HOP-62; 32.4 µM (inactive) with LOX IMVI; 21.8 µM (inactive) in the experiment with OVCAR-4; 54.7 µM (inactive) in the experiment on SNB-19; 62.8 µM (inactive) in the experiment on SK-MEL-28; 28.1 µM (inactive) in the experiment on CCRF-CEM. Besides, the GI50 in the experiment on A549 is 41.4 µM (inactive); in the experiment on SF-268, 60.7 µM (inactive); in the experiment with U-251, 50.8 µM (inactive); with KM12, 21 µM (inactive); in the experiment on IGROV-1 it was 12.6 µM (inactive); with MOLT-4 it was 23.6 µM (inactive). The GI50 in the experiment on HCT-116 was 43.5 µM (inactive); with OVCAR-3, 34.4 µM (inactive).
In the case of `S=C(/N=C1/NCC(CN2CCN(c3ccccc3)CC2)O1)Nc1ccccc1` (stereo not given), the GI50 was 37.5 µM (inactive) with BT-549; 35.2 µM (inactive) with K562; > 100 µM (inactive) with A498; 76.7 µM (inactive) with 786-0; 28.6 µM (inactive) in the experiment with COLO 205; 11.6 µM (inactive) in the experiment on UO-31. The GI50 in the experiment with HOP-62 was 77.3 µM (inactive); in the experiment with LOX IMVI, 25 µM (inactive); in the experiment with OVCAR-4, 49.3 µM (inactive); in the experiment on SNB-19 it was > 100 µM (inactive); in the experiment on SK-MEL-28 it was > 100 µM (inactive); in the experiment with CCRF-CEM, 30.5 µM (inactive). Also, the GI50 in the experiment on A549 was 61 µM (inactive); in the experiment with SF-268, > 100 µM (inactive); with U-251 it was 55.3 µM (inactive); in the experiment on KM12, 65.2 µM (inactive); in the experiment with IGROV-1 it was > 100 µM (inactive); with MOLT-4, 27.5 µM (inactive). The figures for the GI50 with HCT-116 and in the experiment on OVCAR-3 were 48.3 µM (inactive) and 52.2 µM (inactive), respectively.
